# According to ChEMBL document CHEMBL5154942, “Discovery of Clinical Candidate NTQ1062 as a Potent and Bioavailable Akt Inhibitor for the Treatment of Human Tumors” (J Med Chem, 2022):
# How the values were obtained:
# [1] = molecular target: RAC-alpha serine/threonine-protein kinase (Homo sapiens, UniProt P31749); assay: Inhibition of recombinant AKT1 (104 to 480 end residues) (unknown origin) catalytic domain expressed in Sf21 cells using peptide substrate incubated for 1 hr in presence of ATP by caliper off-chip mobility shift assay
# RAC-alpha serine/threonine-protein kinase, sequence (P31749 whole entry, the tested form may be a part): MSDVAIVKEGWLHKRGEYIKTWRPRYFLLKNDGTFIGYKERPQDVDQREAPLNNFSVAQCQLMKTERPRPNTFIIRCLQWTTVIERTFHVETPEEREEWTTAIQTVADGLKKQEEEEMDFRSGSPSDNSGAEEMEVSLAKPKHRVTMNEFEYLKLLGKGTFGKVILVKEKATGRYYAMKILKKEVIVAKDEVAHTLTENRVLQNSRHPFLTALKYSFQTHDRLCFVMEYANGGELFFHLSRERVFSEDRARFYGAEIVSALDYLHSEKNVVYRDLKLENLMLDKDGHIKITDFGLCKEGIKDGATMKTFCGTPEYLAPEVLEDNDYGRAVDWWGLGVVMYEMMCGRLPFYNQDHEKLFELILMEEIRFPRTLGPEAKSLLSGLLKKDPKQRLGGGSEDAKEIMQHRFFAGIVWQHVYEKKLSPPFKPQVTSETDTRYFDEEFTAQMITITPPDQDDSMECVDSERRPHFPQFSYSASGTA
# LNCaP [2] = assay: In vivo antitumor activity against human LNCap cells xenografted in NCG mouse assessed as tumor growth inhibition at 50 mg/kg administered once daily for 18 to 21 days relative to control; assay type: functional; details: time 18-21 day, read-out: TGI
# LNCaP [3] = assay: Antiproliferative activity against human LNcap assessed as reduction in cell viability incubated for 72 hrs by Cell Titer Glo luminescent assay
# [4] = AUC (0 to infinity) in overnight fasted ICR mouse at 10 mg/kg, po measured upto 24 hrs by UPLC-MS/MS analysis; assay type: ADME, organism-based; set-up: dose 10 mg/kg, time < 24 hrs, route po; details: in vivo
# [5] = Oral bioavailability in overnight fasted ICR mouse at 10 mg/kg measured upto 24 hrs by UPLC-MS/MS analysis; assay type: ADME, organism-based; details: in vivo
# Cytochrome P450 3A4 = Cytochrome P450 3A4 (Homo sapiens, UniProt P08684); assay: Inhibition of CYP3A4 in human liver microsomes at 0.01 to 30 uM […] in presence of NADPH by UPLC-MS/MS analysis; assay type: ADME, Microsome
# Cytochrome P450 3A4, sequence (P08684 whole entry): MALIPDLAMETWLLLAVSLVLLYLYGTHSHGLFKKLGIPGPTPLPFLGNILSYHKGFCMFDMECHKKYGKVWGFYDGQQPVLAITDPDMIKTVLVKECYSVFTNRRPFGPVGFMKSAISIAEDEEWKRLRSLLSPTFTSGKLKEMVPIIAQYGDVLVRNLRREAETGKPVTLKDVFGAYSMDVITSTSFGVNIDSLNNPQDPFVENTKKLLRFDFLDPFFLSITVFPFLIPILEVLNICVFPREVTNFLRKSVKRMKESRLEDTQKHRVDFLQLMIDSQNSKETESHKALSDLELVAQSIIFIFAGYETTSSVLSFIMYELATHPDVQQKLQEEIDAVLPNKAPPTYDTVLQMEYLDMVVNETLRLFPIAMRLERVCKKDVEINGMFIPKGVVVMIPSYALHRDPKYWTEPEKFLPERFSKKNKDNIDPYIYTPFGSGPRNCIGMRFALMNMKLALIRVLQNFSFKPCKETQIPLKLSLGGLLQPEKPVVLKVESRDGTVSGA
# [6] = Half life in ICR mouse at 2 mg/kg, iv measured upto 24 hrs by UPLC-MS/MS analysis; assay type: ADME, organism-based; details: in vivo
# Cytochrome P450 2C19 = Cytochrome P450 2C19 (Homo sapiens, UniProt P33261); assay: Inhibition of CYP2C19 in human liver microsomes at 0.01 to 30 uM using mephenytoin as substrate in presence of NADPH by UPLC-MS/MS analysis; assay type: ADME, Microsome
# Cytochrome P450 2C19, sequence (P33261 whole entry): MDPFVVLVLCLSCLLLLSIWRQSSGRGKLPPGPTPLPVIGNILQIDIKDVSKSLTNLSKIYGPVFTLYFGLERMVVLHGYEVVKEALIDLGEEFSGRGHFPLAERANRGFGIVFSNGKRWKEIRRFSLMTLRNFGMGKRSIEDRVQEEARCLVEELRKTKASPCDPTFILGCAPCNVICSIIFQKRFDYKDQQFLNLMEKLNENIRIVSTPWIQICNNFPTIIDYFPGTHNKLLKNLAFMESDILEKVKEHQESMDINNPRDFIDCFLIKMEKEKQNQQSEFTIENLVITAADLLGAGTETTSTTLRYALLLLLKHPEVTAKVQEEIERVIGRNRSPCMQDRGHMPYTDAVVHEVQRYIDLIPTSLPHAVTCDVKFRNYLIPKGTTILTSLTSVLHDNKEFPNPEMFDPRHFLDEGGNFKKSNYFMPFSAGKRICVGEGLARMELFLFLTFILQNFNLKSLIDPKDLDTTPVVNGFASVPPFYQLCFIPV
# [7] = Clearance in ICR mouse at 2 mg/kg, iv measured upto 24 hrs by UPLC-MS/MS analysis; assay type: ADME, organism-based; details: in vivo
# Cytochrome P450 2C9 = Cytochrome P450 2C9 (Homo sapiens, UniProt P11712); assay: Inhibition of CYP2C9 in human liver microsomes at 0.01 to 30 uM using diclofenac as substrate in presence of NADPH by UPLC-MS/MS analysis; assay type: ADME, Microsome
# Cytochrome P450 2C9, sequence (P11712 whole entry): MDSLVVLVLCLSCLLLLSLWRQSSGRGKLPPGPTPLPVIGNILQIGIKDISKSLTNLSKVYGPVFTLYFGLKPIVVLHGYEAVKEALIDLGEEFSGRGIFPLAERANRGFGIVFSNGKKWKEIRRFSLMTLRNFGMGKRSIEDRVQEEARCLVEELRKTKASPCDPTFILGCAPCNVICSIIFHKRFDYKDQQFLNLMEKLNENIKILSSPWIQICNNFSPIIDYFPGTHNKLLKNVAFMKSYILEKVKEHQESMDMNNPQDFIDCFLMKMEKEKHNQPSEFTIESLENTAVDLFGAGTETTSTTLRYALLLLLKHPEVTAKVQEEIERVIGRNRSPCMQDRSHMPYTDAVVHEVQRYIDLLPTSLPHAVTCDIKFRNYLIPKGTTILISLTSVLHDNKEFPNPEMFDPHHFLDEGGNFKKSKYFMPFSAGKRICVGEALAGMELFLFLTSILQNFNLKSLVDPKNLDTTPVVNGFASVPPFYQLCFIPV
# [8] = AUC (0 to infinity) in ICR mouse at 2 mg/kg, iv measured upto 24 hrs by UPLC-MS/MS analysis; assay type: ADME, organism-based; set-up: dose 2 mg/kg, time < 24 hrs, route iv; details: in vivo
# Cytochrome P450 1A2 = molecular target: T1, Cytochrome P450 1A2 (Homo sapiens, UniProt P05177); assay: Inhibition of CYP1A2 in human liver microsomes at 0.01 to 30 uM […] in presence of NADPH by UPLC-MS/MS analysis; assay type: ADME, Microsome
# T1 sequence (P05177 whole entry): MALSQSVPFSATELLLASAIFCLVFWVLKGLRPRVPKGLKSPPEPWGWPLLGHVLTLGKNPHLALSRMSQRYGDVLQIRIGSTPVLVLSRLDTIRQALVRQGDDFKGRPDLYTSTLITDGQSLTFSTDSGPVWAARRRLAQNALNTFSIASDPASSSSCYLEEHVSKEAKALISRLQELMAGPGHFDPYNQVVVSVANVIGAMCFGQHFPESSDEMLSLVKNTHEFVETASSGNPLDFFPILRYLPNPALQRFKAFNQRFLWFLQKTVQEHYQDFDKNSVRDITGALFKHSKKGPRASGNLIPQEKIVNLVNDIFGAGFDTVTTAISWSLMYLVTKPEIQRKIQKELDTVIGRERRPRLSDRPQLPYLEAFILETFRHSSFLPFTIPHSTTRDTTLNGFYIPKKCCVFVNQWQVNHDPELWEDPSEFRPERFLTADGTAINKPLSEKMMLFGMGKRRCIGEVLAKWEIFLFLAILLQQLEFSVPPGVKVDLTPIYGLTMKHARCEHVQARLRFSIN
# [9] = Tmax in overnight fasted ICR mouse at 10 mg/kg, po measured upto 24 hrs by UPLC-MS/MS analysis; assay type: ADME, organism-based; details: in vivo
# Cytochrome P450 2D6 = Cytochrome P450 2D6 (Homo sapiens, UniProt P10635); assay: Inhibition of CYP2D6 in human liver microsomes at 0.01 to 30 uM using dextromethorphan as substrate in presence of NADPH by UPLC-MS/MS analysis; assay type: ADME, Microsome
# Cytochrome P450 2D6, sequence (P10635 whole entry): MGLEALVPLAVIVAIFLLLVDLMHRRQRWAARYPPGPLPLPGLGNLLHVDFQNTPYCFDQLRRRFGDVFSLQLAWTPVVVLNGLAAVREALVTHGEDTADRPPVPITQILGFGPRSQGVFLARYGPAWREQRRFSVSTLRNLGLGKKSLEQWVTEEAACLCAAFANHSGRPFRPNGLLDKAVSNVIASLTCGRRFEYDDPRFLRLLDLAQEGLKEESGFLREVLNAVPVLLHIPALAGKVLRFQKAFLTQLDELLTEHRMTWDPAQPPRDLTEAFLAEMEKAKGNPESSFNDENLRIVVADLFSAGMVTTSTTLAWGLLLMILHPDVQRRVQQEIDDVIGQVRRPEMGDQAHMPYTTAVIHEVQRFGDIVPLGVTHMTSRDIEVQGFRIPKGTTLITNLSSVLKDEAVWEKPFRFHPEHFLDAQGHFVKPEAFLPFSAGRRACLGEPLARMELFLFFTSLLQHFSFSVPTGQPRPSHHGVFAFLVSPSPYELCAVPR
# [10] = Cmax in overnight fasted ICR mouse at 10 mg/kg, po measured upto 24 hrs by UPLC-MS/MS analysis; assay type: ADME, organism-based; set-up: dose 10 mg/kg, time < 24 hrs, route po; details: in vivo
# [11] = Plasma protein binding in mouse at 1 to 100 uM incubated for 16 hrs by UPLC-MS/MS analysis; assay type: ADME, cell-free; details: dose 1-100 µM, read-out: PPB (converted)
# [12] = MRT(0 to t) in overnight fasted ICR mouse at 10 mg/kg, po measured upto 24 hrs by UPLC-MS/MS analysis; assay type: ADME, organism-based; details: in vivo
# [13] = Plasma protein binding in human at 1 to 100 uM incubated for 16 hrs by UPLC-MS/MS analysis; assay type: ADME, cell-free; details: dose 1-100 µM, read-out: PPB (converted)
# [14] = Plasma protein binding in human assessed as unbound fraction at 1 to 100 uM incubated for 16 hrs by UPLC-MS/MS analysis; assay type: ADME, cell-free; details: dose 1-100 µM
# cells = details: Homo sapiens, COLO 704, 72 h
# C-33-A = assay: cells; details: Homo sapiens, 72 h
# Description: Antiproliferative activity against human C-33-A habouring PTEN deletion mutant assessed as reduction in cell viability incubated for 72 hrs by Cell Titer Glo luminescent assay
# TOV21G = assay: cells; details: Homo sapiens, 72 h
# Description: Antiproliferative activity against human TOV-21G habouring PTEN deletion and PIK3CA mutation/amplication assessed as reduction in cell viability incubated for 72 hrs by Cell Titer Glo luminescent assay
# CAL-51 = assay: cells; details: Homo sapiens, CAL-51, 72 h
# Description: Antiproliferative activity against human CAL-51 habouring PTEN deletion and PIK3CA mutation/amplication assessed as reduction in cell viability incubated for 72 hrs by Cell Titer Glo luminescent assay
# T47D = assay: cells; details: Homo sapiens, 72 h
# Description: Antiproliferative activity against human T47D habouring PIK3CA mutation/amplication assessed as reduction in cell viability incubated for 72 hrs by Cell Titer Glo luminescent assay
# RL95-2 = assay: cells; details: Homo sapiens, RL95-2, 72 h
# Description: Antiproliferative activity against human RL95-2 habouring PTEN deletion mutant assessed as reduction in cell viability incubated for 72 hrs by Cell Titer Glo luminescent assay
# PC-3 = assay: cells; details: Homo sapiens, PC-3, 72 h
# Description: Antiproliferative activity against human PC-3 habouring PTEN deletion and PIK3CA mutation/amplication assessed as reduction in cell viability incubated for 72 hrs by Cell Titer Glo luminescent assay
# ZR-75-1 = assay: cells; details: Homo sapiens, ZR-75-1, 72 h
# Description: Antiproliferative activity against human ZR-75-1 habouring PTEN deletion mutant assessed as reduction in cell viability incubated for 72 hrs by Cell Titer Glo luminescent assay
smiles,measurement,setting,value
CC(C)NC[C@@H](C(=O)N1CCN(c2ncnc3c2[C@H](C)OC(=O)N3)[C@H]2C[C@H]21)c1ccc(Cl)cc1,IC50,[1],0.0006 µM
same,inhibition in vivo at 50 mg/kg,LNCaP [2],94.1%
same,IC50,LNCaP [3],0.201 µM
same,AUC(0-inf),[4],2.58 µg·h/mL
same,bioavailability,[5],26.5%
CC(C)NC[C@@H](C(=O)N1[C@@H]2CC[C@H]1CN(c1ncnc3c1[C@H](C)OC(=O)N3)C2)c1ccc(Cl)cc1,IC50,[1],0.0006 µM
same,IC50,LNCaP [3],0.084 µM
same,AUC(0-inf),[4],0.727 µg·h/mL
CC(C)NC[C@@H](C(=O)N1CC2CC1CN2c1ncnc2c1[C@H](C)CC(=O)N2)c1ccc(Cl)cc1 (stereo partly specified),IC50,[1],0.414 µM
CC(C)NC[C@@H](C(=O)N1CC2CCC(C1)N2c1ncnc2c1[C@H](C)CC(=O)N2)c1ccc(Cl)cc1,IC50,LNCaP [3],0.446 µM
same,AUC(0-inf),[4],1.48 µg·h/mL
CC(C)NC[C@@H](C(=O)N1CCN(c2ncnc3c2[C@H](C)CC(=O)N3)CC1)c1ccc(Cl)cc1,IC50,[1],0.0016 µM
same,IC50,Cytochrome P450 3A4,39.2 µM
same,half-life,[6],1.56 h
same,inhibition in vivo at 50 mg/kg,LNCaP [2],50%
same,IC50,Cytochrome P450 2C19,> 50 µM
same,clearance,[7],10.7 L/h/kg
same,IC50,LNCaP [3],0.103 µM
same,IC50,Cytochrome P450 2C9,> 50 µM
same,AUC(0-inf),[8],0.181 µg·h/mL
same,IC50,Cytochrome P450 1A2,25.2 µM
same,Tmax,[9],2 h
same,IC50,Cytochrome P450 2D6,> 50 µM
same,AUC(0-inf),[4],0.241 µg·h/mL
same,Cmax,[10],0.0843 µg/mL
same,bioavailability,[5],26.6%
same,"fraction unbound at 16 h, up to 100 µM",[11],0.477
same,MRT last at 24 h,[12],2.23 h
same,"fraction unbound at 16 h, up to 100 µM",[13],0.513
same,"fraction unbound at 16 h, up to 100 µM",[14],0.513
COC1CCC(NC[C@@H](C(=O)N2CCN(c3ncnc4c3[C@H](C)CC(=O)N4)[C@H]3C[C@H]32)c2ccc(Cl)cc2)CC1 (stereo partly specified),IC50,[1],0.0013 µM
same,IC50,Cytochrome P450 3A4,1.81 µM
same,IC50,Cytochrome P450 2C19,30 µM
same,IC50,Cytochrome P450 2C9,30 µM
same,IC50,Cytochrome P450 1A2,30 µM
same,IC50,Cytochrome P450 2D6,30 µM
CC(C)NC[C@@H](C(=O)N1CCN(c2ncnc3c2[C@@H](C)CC(=O)N3)CC1)c1ccc(Cl)cc1,IC50,[1],> 1 µM
CC(C)NC[C@@H](C(=O)N1C2CCC1CN(c1ncnc3c1N(C)CC(=O)N3)C2)c1ccc(Cl)cc1.O=CO,inhibition in vivo at 50 mg/kg,LNCaP [2],34.5%
same,IC50,LNCaP [3],0.279 µM
same,AUC(0-inf),[4],2.29 µg·h/mL
CC(C)NC[C@@H](C(=O)N1CCC(c2ncnc3c2[C@H](C)CC(=O)N3)CC1)c1ccc(Cl)cc1,IC50,[1],> 1 µM
C[C@@H]1CC(=O)Nc2ncnc(N3CCN(C(=O)[C@H](CN)c4ccc(Cl)cc4)[C@@H]4C[C@@H]43)c21,IC50,[1],0.0068 µM
same,IC50,Cytochrome P450 3A4,10.1 µM
same,IC50,Cytochrome P450 2C19,> 30 µM
same,IC50,Cytochrome P450 2C9,> 30 µM
same,IC50,Cytochrome P450 1A2,6.48 µM
same,IC50,Cytochrome P450 2D6,> 30 µM
C[C@@H]1CC(=O)Nc2ncnc(N3CCN(C(=O)[C@H](CNC4CC4)c4ccc(Cl)cc4)[C@@H]4C[C@@H]43)c21,IC50,Cytochrome P450 3A4,1.09 µM
same,IC50,Cytochrome P450 2C19,> 30 µM
same,IC50,Cytochrome P450 2C9,> 30 µM
same,IC50,Cytochrome P450 1A2,> 30 µM
same,IC50,Cytochrome P450 2D6,> 30 µM
CC(C)NC[C@@H](C(=O)N1C[C@H]2CC[C@@H](C1)N2c1ncnc2c1N(C)CC(=O)N2)c1ccc(Cl)cc1,IC50,[1],0.03 µM
CC(C)NC[C@@H](C(=O)N1CCN(c2cc[nH]c(=O)c2)CC1)c1ccc(Cl)cc1,IC50,[1],> 1 µM
CC(C)NC[C@@H](C(=O)N1CCN(c2ncnc3c2[C@H](C)CC(=O)N3)C[C@@H]1C)c1ccc(Cl)cc1,IC50,[1],0.22 µM
CC(C)NC[C@@H](C(=O)N1C2CCC1CN(c1ncnc3c1[C@H](C)CC(=O)N3)C2)c1ccc(Cl)cc1,IC50,LNCaP [3],0.079 µM
same,AUC(0-inf),[4],0.911 µg·h/mL
CC(C)NC[C@@H](C(=O)N1CC2(C1)CN(c1ncnc3c1[C@H](C)CC(=O)N3)C2)c1ccc(Cl)cc1,IC50,[1],> 1 µM
CC(C)NC[C@@H](C(=O)N1CCN(c2ncnc3c2[C@H](C)C[C@H]3O)CC1)c1ccc(Cl)cc1 [IPATASERTIB],IC50,cells,0.945 µM
same,IC50,C-33-A,0.726 µM
same,IC50,TOV21G,0.715 µM
same,IC50,CAL-51,0.265 µM
same,IC50,T47D,0.328 µM
same,IC50,RL95-2,0.331 µM
same,IC50,PC-3,3.54 µM
same,IC50,ZR-75-1,1.32 µM
CC(C)NC[C@@H](C(=O)N1C[C@H]2CC[C@@H](C1)N2c1ncnc2c1[C@H](C)OC(=O)N2)c1ccc(Cl)cc1,IC50,[1],0.0016 µM
same,inhibition in vivo at 50 mg/kg,LNCaP [2],28%
same,IC50,LNCaP [3],0.236 µM
same,AUC(0-inf),[4],3.03 µg·h/mL
[2H]C1([2H])N(C(=O)[C@H](CNC(C)C)c2ccc(Cl)cc2)C([2H])([2H])C([2H])([2H])N(c2ncnc3c2[C@H](C)CC(=O)N3)C1([2H])[2H],IC50,[1],0.0016 µM
same,IC50,LNCaP [3],0.131 µM
same,AUC(0-inf),[4],0.947 µg·h/mL
CC(C)NC[C@@H](C(=O)N1CC=C(c2ncnc3c2[C@H](C)CC(=O)N3)CC1)c1ccc(Cl)cc1,IC50,[1],0.951 µM
C[C@@H]1CC(=O)Nc2ncnc(N3CCN(C(=O)[C@H](CNC4C5COCC54)c4ccc(Cl)cc4)[C@@H]4C[C@@H]43)c21 (stereo partly specified),IC50,[1],0.0041 µM
same,IC50,Cytochrome P450 3A4,4.33 µM
same,IC50,Cytochrome P450 2C19,> 30 µM
same,IC50,Cytochrome P450 2C9,> 30 µM
same,IC50,Cytochrome P450 1A2,> 30 µM
same,IC50,Cytochrome P450 2D6,> 30 µM
Cc1c(CO)ncnc1N1CCN(C(=O)[C@H](CNC(C)C)c2ccc(Cl)cc2)CC1,IC50,[1],> 1 µM
